Assay results published in US12661385B2, “Modulation of mTORCI activity and autophagy via CIB2-RHEB interaction” (University of Maryland, Baltimore, priority 2018, dated 2026).
Positions count from the first letter of the chain named. One block for each molecule: values may come before it.

Assays:
[1] = test system: RPE-specific Cib2^KO mice; details: mouse, in vivo
From the text: For comparison, untreated WT control mice (black squares) are replotted from FIG. 6b. c, Schematic of treatment paradigm in RPE-specific Cib2^KO injected with 9-cis retinal and control mice injected with vehicle. d. […] TEM micrographs for indicated genotype at the end of the treatment paradigm as outlined in c (n=3/genotype).
To further assess the potential clinical translatability of exogenous retinoids, we tested an extended treatment paradigm following injection of 9-cis retinal in RPE-specific Cib2^KO mice (FIG. 4c). […] To assess medium-term efficacy of exogenous retinoid therapy, we extended the paradigm further by one month.
Electroretinograms (ERG) were recorded as earlier described^14 with modifications. Mice, overnight dark-adapted, were anesthetized with ketamine-xylazine (100 mg/kg and 10 mg/kg, respectively) and pupils were dilated with 1% Tropicamide. A gold wire lens electrode was placed on the cornea, a platinum reference electrode in the mouth, and a ground electrode on the tail. To assess rod-driven responses, increasing scotopic stimuli were presented sequentially (0.003962233 to 3.147314 cd×s/m2) with 5-60 sec intervals using UTAS BigShot (LKC Technologies, Gaithersburg, MD). At least 3 waveforms per intensity were averaged. For cone function evaluation, photopic responses to a single bright flash (3.15 cd×s/m2) under a steady rod-suppressing field of cd×s/m2. Waves were analyzed using EM for Windows software (LKC Technologies).

[2] = test system: RPE-specific Cib2^KO mice; assay: TEM analysis of the RPE at the conclusion of treatment; type: in vivo, mouse; details: 9-cis retinal-treated RPE-specific Cib2^KO mice
Description: FIG. 4. […] Scale bar. 2 μm.
Sections for EM were prepared as previously described 48. Briefly, hemisected eyecups were rinsed in buffer and postfixed in 2% osmium tetroxide and 1.5% potassium ferrocyanide in dH2O for 2 hr, dehydrated in a graded ethanol series, and embedded in Epon-Araldite (Electron Microscopy Sciences, Hatfield, PA). Semi-thin sections (4 μm) were cut and stained with 1% cresyl violet. Ultra-thin sections (90 nm) were cut on an ultramicrotome (Ultracut E 701704, Reichert-Jung, Buffalo, NY) using a diamond knife (Micro Star Technologies, Inc., Huntsville, TX), collected on copper grids, counterstained with 4% methanolic uranyl acetate (Electron Microscopy Sciences, Hatfield, PA), and outer retinal morphology examined using a transmission electron microscope (TEM; Model 300: Phillips, Eindhoven, The Netherlands). Photomicrographs were captured with a digital camera (15 megapixel digital camera, Scientific Instruments and Applications, Duluth, GA) and Maxim DL Version 5 software (Diffraction Limited, Ottawa, Canada).

TSC1 = molecular target: T1, TSC1 (Homo sapiens, UniProt Q92574); assay: NanoSPD (nanoTRAP) interaction assay in COS-7 cells, TSC1; type: binding; details: FLAG-tagged TSC1
T1 construct: host or cells: COS-7
T1 sequence (Q92574 1-1164): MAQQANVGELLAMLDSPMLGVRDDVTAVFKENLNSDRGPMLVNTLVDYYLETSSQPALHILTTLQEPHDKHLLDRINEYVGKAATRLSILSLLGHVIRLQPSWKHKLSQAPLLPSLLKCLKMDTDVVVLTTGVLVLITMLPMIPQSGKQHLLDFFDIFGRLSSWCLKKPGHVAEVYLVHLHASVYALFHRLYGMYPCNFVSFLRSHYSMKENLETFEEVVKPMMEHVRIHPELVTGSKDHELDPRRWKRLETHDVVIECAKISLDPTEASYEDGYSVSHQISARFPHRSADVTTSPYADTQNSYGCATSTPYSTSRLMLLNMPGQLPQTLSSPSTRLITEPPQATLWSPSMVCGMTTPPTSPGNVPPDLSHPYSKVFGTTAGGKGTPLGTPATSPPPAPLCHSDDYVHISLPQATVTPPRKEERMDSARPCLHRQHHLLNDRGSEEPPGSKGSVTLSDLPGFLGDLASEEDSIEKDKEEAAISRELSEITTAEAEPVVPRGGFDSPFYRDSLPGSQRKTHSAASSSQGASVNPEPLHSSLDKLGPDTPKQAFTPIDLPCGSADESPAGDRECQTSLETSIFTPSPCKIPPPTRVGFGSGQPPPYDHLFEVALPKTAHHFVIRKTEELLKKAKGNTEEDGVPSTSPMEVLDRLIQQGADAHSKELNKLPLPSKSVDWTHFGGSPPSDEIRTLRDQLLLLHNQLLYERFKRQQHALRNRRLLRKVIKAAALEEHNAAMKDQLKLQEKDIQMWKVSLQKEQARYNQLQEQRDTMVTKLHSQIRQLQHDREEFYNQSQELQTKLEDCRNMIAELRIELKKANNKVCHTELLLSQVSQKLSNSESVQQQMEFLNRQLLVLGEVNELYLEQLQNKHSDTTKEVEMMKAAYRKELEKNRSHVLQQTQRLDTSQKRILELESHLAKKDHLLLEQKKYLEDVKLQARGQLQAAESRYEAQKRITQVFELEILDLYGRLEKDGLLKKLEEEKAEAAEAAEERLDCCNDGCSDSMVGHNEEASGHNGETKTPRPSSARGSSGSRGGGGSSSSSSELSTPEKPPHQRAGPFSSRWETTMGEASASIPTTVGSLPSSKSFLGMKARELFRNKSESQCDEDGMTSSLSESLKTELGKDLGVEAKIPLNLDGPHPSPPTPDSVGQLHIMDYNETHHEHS
From the text: (§1) FIG. 14. […] Arrowheads indicate filopodia tip accumulation of hCIB2-eGFP, * indicates no accumulation of indicted constructs in the red channel. c. Representative confocal images (top panel) showing CIB2 (green) interaction with Rheb (red) and Raptor (red) using NanoTRAP assay. […] Arrowheads indicate filopodia tip accumulation of indicated constructs, * indicates no accumulation of indicted construct in the red or far-red channel. Scale bar: 10 μm. d. Quantification for nanoTRAP assay for images shown above. *** p<0.001 by one-way ANOVA. e, Co-IP experiments show interaction between Raptor and CIB2.
(§2) To reveal the molecular mechanism of CIB2-mediated mTORC1 modulation, we focused on the TSC-Rheb-mTORC1 axis. We performed an interaction screen of specific proteins including TSC1, TSC2, mTORC1-specific subunit Raptor, mTOR kinase, and Rheb. We used a recently-published quantitative interaction assay known as nanoscale pulldown 2.0 (NanoSPD), in which eGFP-nanobody tag fused to the myosin-HMM domain (nanoTRAP) preferentially migrates to the filopodia (Bird et al., Molecular Biology of the Cell 28, 463-475 (2017)). CIB2-eGFP (bait) migrated efficiently to filopodia in COS-7 cells only in the presence of the nanoTRAP. […] Many downstream and upstream targets of mTORC1 regulate its activity via binding to the mTORC1-specific subunit Raptor. […]

TSC2 = molecular target: T2, TSC2 (Homo sapiens, UniProt P49815); assay: NanoSPD (nanoTRAP) interaction assay in COS-7 cells, TSC2; type: binding; details: FLAG-tagged TSC2
T2 construct: host or cells: COS-7
From the text: as §1, §2

Rheb = Rheb (Homo sapiens, UniProt Q15382); assay: Co-IP of tdTomato-CIB2 with HA-GST-Rheb and Rheb variants; type: binding; design: host or cells: HEK293; details: HEK293 lysates
Description: FIG. 3. […] Note the stronger interaction between CIB2 and Rheb S20N variant as compared to Q64L variant (GDP vs GTP mimetic, respectively). c, CIB2 preferentially interacts with GDP-loaded Rheb is further confirmed by co-IP experiments of HA-GST-Rheb immobilized on […] and loaded with either GDP or GTPγS, followed by incubation with tdTomato-CIB2 lysate. d, Proposed model of CIB2 function in retinal sensory cells. […] Loss of CIB2 results in reduced autophagy and exacerbated mTORC1 signaling, thus leading to RPE pathology and secondary PR dysfunction. e, f Immunoblots from RPE/choroid lysates from dry AMD or control age-matched donors indicate reduced CIB2 expression, overactive mTORC1 and reduced autophagy, quantified in panel f. Unpaired two-tailed 1 test was used to determine statistical significance. p value of <0.05 (*), <0.01 (**), and <0.001 (***). Please note that one control sample (ψ) is outliner and is highly variant from the rest, Re-quantification, omitting the highly variant control sample, is shown in FIG. 15. g.
We tested the essentiality of nucleotide binding state of Rheb using co-IP assays. […] Next, we used the Q64L and […] Rheb variants, which mimic the GTP- and GDP-bound state, respectively. […]

T2 sequence (P49815 whole entry): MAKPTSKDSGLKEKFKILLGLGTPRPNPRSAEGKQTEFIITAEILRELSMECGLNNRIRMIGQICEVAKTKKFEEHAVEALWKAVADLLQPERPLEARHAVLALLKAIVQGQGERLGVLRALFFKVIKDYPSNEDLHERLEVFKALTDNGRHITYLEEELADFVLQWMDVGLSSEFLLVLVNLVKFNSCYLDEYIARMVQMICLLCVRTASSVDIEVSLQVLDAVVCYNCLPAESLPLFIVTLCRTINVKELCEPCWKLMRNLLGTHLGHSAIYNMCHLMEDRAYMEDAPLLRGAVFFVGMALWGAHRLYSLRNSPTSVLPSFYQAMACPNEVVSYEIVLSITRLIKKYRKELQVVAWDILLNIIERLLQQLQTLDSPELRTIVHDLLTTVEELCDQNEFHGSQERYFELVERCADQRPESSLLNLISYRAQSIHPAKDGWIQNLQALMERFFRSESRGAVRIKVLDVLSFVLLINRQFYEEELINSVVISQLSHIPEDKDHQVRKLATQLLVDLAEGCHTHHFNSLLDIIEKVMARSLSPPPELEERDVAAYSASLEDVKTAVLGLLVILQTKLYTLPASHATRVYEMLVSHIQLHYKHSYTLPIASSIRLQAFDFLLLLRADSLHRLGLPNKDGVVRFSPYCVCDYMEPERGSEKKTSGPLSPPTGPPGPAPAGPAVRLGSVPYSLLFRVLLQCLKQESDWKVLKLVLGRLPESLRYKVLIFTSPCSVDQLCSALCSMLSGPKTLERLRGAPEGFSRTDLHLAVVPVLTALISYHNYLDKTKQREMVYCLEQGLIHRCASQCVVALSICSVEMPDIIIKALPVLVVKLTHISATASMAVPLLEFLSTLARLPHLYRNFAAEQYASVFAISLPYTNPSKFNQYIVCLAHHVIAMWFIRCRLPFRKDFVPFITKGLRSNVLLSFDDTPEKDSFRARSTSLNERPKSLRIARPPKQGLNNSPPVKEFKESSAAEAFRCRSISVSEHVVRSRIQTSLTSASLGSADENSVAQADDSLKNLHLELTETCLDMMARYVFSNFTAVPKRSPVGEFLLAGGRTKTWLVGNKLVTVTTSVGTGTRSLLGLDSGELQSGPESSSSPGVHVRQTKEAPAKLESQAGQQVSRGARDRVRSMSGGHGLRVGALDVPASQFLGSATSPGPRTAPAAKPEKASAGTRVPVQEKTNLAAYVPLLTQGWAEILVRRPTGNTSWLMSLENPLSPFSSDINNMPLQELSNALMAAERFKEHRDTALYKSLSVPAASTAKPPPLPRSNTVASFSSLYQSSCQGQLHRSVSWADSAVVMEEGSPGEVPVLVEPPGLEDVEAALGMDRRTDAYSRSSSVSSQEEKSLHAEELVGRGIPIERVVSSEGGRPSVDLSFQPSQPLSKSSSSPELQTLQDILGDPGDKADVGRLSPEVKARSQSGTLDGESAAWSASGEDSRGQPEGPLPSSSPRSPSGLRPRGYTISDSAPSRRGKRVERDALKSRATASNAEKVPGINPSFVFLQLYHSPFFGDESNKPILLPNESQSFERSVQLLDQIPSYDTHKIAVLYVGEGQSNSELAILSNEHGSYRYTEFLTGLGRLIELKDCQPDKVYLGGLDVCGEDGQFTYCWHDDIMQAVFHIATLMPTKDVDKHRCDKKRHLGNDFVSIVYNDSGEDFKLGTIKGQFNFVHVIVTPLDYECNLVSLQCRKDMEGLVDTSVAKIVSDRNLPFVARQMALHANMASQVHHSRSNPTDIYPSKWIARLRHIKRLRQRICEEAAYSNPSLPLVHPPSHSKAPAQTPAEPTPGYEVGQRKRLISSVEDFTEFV
Sequence of Rheb (Q15382 1-181): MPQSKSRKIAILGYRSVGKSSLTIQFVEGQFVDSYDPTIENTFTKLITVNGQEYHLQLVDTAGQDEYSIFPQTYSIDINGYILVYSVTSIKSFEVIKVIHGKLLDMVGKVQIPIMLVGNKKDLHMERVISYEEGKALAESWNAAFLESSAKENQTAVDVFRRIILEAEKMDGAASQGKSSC

ERG amplitude differences between groups four weeks post-injection [1]: returned to their baseline levels
ERG amplitudes four weeks after the 2nd injection [1]: diverged significantly
ERG amplitudes two weeks after the 2nd injection [1]: no discernable inter-group differences
Molecule: CC1=C(/C=C/C(C)=C\C=C\C(C)=C\C=O)C(C)(C)CCC1 [9-cis retinal]
ERG amplitudes after the treatment paradigm (overall) [1]: temporarily but reproducibly improved ERG amplitudes
ERG amplitudes two weeks after the 1st injection [1]: indistinguishable from those of vehicle-injected RPE-Cre+ controls
Mice with vacuoles and/or sub-RPE drusen present in the RPE (TEM) [2]: 3 of 3

Co-accumulation with TSC1 (NanoSPD) (TSC1): did not show any co-accumulation
Co-accumulation with TSC2 (NanoSPD) (TSC2): did not show any co-accumulation
B1: CIB2-eGFP: eGFP-tagged human CIB2 used as bait in the NanoSPD assay (protein)
chain: MGNKQTIFTEEQLDNYQDCTFFNKKDILKLHSRFYELAPNLVPMDYRKSPIVHVPMSLIIQMPELRENPFKERIVAAFSEDGEGNLTFNDFVDMFSVLCESAPRELKANYAFKIYDFNTDNFICKEDLELTLARLTKSELDEEEVVLVCDKVIEEADLDGDGKLGFADFEDMIAKAPDFLSTFHIRI
modifications: left off: large carriers
notes: eGFP-tagged human CIB2 used as bait in the NanoSPD assay

Co-immunoprecipitation with HA-GST-Rheb (Rheb): co-immunoprecipitated with HA-GST-Rheb
B2: tdTomato-CIB2: tdTomato tagged CIB2 expressed in HEK293 cells (tdTomato-C1-mCIB2 construct) (protein)
chain: B1 chain with S32A, A76E, L130M, D141E, E143D
modifications: left off: large carriers
